# Data reported in ChEMBL document CHEMBL1155891, “Synthesis and antiviral evaluation of some new pyrazole and fused pyrazolopyrimidine derivatives” (Bioorg Med Chem, 2008).
# Calls of active or inactive are those of the source. The rule behind the calls is not given here.
# How the values were obtained:
# Human alphaherpesvirus 1 [1] = test: Antiviral activity against HSV1 10 ug/10^5 cells by plaque infectivity assay; format: functional, organism-based
# Human alphaherpesvirus 1 [2] = test: Antiviral activity against HSV1 20 ug/10^5 cells by plaque infectivity assay; format: functional, organism-based
# Hepatovirus A [3] = test: Antiviral activity against HAV 20 ug/10^5 cells by plaque infectivity assay
# Hepatovirus A [4] = test: Antiviral activity against HAV 10 ug/10^5 cells by plaque infectivity assay; format: functional, organism-based
Compound,Activity (Human alphaherpesvirus 1 [1]),Activity (Human alphaherpesvirus 1 [2]),Activity (Hepatovirus A [3]),Activity (Hepatovirus A [4])
COCCSc1ncnc2c1cnn2-c1ncnc2sc3c(c12)-c1ccccc1CC3,Active,Active,–,–
CCOC(=O)c1cnn(-c2ncnc3sc4c(c23)-c2ccccc2CC4)c1N,–,–,Active,–
COC(CSc1ncnc2c1cnn2-c1ncnc2sc3c(c12)-c1ccccc1CC3)OC,Active,–,–,–
N#Cc1cnn(-c2ncnc3sc4c(c23)-c2ccccc2CC4)c1NC(=S)NC(=O)c1ccccc1,Active,Active,–,Active
N#Cc1cnn(-c2ncnc3sc4c(c23)-c2ccccc2CC4)c1N,–,–,Active,Active
